How the values were obtained:
[1] = tested on: Plutella xylostella; experiment: Plutella xylostella (diamond back moth), treated artificial diet, L2 larvae; format: in vivo; settings: 120 h, application rate of 200 ppm, 5 days after infestation, in comparison to untreated samples, read-out: effect in at least one of the two categories (mortality or growth inhibition)
Description: Example B2: Plutella xylostella (Diamond Back Moth)
(§1) 24-well microtiter plates with artificial diet were treated with aqueous test solutions prepared from 10,000 ppm DMSO stock solutions by pipetting. After drying, the plates were infested with L2 larvae (10 to 15 per well). The samples were assessed for mortality and growth inhibition in comparison to untreated samples 5 days after infestation.

[2] = tested on: Spodoptera littoralis; experiment: Spodoptera littoralis (Egyptian cotton leaf worm), sprayed cotton leaf discs, L1 larvae; format: in vivo; settings: foliar, 72 h, application rate of 200 ppm, 3 days after infestation, in comparison to untreated samples, read-out: control (at least one of mortality, anti-feedant effect, growth inhibition)
Description: Example B1: Spodoptera littoralis (Egyptian Cotton Leaf Worm)
Cotton leaf discs were placed on agar in 24-well microtiter plates and sprayed with aqueous test solutions prepared from 10,000 ppm DMSO stock solutions. After drying, the leaf discs were infested with five L1 larvae. The samples were assessed for mortality, anti-feedant effect, and growth inhibition in comparison to untreated samples 3 days after infestation. Control of Spodoptera littoralis by a test sample is when at least one of mortality, anti-feedant effect, and growth inhibition is higher than the untreated sample.

[3] = tested on: Diabrotica balteata; experiment: Diabrotica balteata (corn root worm), sprayed maize sprouts, L2 larvae; format: in vivo; settings: 96 h, application rate of 200 ppm, 4 days after infestation, in comparison to untreated samples, read-out: effect in at least one of the two categories (mortality or growth inhibition)
Description: Example B3: Diabrotica balteata (Corn Root Worm)
as §1, with “Maize sprouts, placed on an agar layer in 24-well” for “24-well”, “plates” for “plates with artificial diet”, “spraying.” for “pipetting.”, “(6” for “(10”, “10” for “15”, “4” for “5”

With CC(C)c1ccccc1NC(=S)N/N=C/c1ccc2c(cnn2-c2ccc(OC(F)(F)F)cc2)c1 [Compound P22] the percent effect (mortality or growth inhibition) at 200 ppm [1] was ≥ 80%.
With CC(C)c1ccccc1NC(=O)N/N=C/c1ccc2nc(-c3ccc(OC(F)(F)F)cc3)cn2c1 [Compound P19] the percent effect (mortality or growth inhibition) at 200 ppm [1] was ≥ 80% and the percent control (mortality, anti-feedant effect or growth inhibition) at 200 ppm [2] was ≥ 80%.
For Cc1cccc(C)c1NC(=S)N/N=C/c1ccc2c(c1)C(=O)N(c1ccc(OC(F)(F)F)cc1)C2=O [Compound P4, 1-(2,6-dimethylphenyl)-3-[(E)-[1,3-dioxo-2-[4-(trifluoromethoxy)phenyl]isoindolin-5-yl]methyleneamino]thiourea], the percent effect (mortality or growth inhibition) at 200 ppm [1] was ≥ 80%.
Work on CC(C)c1ccccc1NC(=O)N/N=C/c1ccc2c(c1)C(=O)N(c1ccc(OC(F)(F)F)cc1)C2=O [Compound P6] yielded a melting point of 239 to 240 °C.
In the case of CC(C)c1ccccc1NC(=S)N/N=C/c1ccc2cn(-c3ccc(OC(F)(F)F)cc3)nc2c1 [Compound P36], the percent effect (mortality or growth inhibition) at 200 ppm [1] is reported as ≥ 80%, the percent effect (mortality or growth inhibition) at 200 ppm [3] is reported as ≥ 80% and the percent control (mortality, anti-feedant effect or growth inhibition) at 200 ppm [2] is reported as ≥ 80%.
With Cc1cccc(C)c1NC(=S)N/N=C/c1ccc2nn(-c3ccc(OC(F)(F)F)cc3)cc2c1 [Compound P25, 1-(2,6-dimethylphenyl)-3-[(E)-[2-[4-(trifluoromethoxy)phenyl]indazol-5-yl]methyleneamino]thiourea] the melting point was 225 to 234 °C.
For CC(C)c1ccccc1NC(=O)N/N=C/c1ccc2c(c1)nc(-c1ccc(OC(F)(F)F)cc1)n2C [Compound P31], the percent effect (mortality or growth inhibition) at 200 ppm [1] was ≥ 80% and the percent control (mortality, anti-feedant effect or growth inhibition) at 200 ppm [2] was ≥ 80%.
In the case of CC(C)c1ccccc1NC(=O)N/N=C/c1ccc2nc(-c3ccc(OC(F)(F)F)cc3)n(C)c2c1 [Compound P32], the percent effect (mortality or growth inhibition) at 200 ppm [1] is reported as ≥ 80% and the percent control (mortality, anti-feedant effect or growth inhibition) at 200 ppm [2] is reported as ≥ 80%.
With Cc1cccc(C)c1NC(=S)N/N=C/c1ccc2sc(-c3ccc(OC(F)(F)F)cc3)nc2c1 [Compound P13, 1-(2,6-dimethylphenyl)-3-[(E)-[2-[4-(trifluoromethoxy)phenyl]-1,3-benzothiazol-5-yl]methyleneamino]thiourea] the percent effect (mortality or growth inhibition) at 200 ppm [1] was ≥ 80% and the percent effect (mortality or growth inhibition) at 200 ppm [3] was ≥ 80%.
Work on O=C1c2ccc(/C=N/NC(=S)Nc3ccccc3C(F)(F)F)cc2C(=O)N1c1ccc(OC(F)(F)F)cc1 [Compound P11] yielded a melting point of 235 to 236 °C.
With CC(C)c1ccccc1NC(=S)N/N=C/c1ccc2c(c1)nc(-c1ccc(OC(F)(F)F)cc1)n2C [Compound P33] the percent effect (mortality or growth inhibition) at 200 ppm [1] was ≥ 80% and the percent control (mortality, anti-feedant effect or growth inhibition) at 200 ppm [2] was ≥ 80%.
With Cc1cccc(C)c1NC(=S)N/N=C/c1ccc2nc(-c3ccc(OC(F)(F)F)cc3)n(C)c2c1 [Compound P30] the percent effect (mortality or growth inhibition) at 200 ppm [1] was ≥ 80%.
For CC(C)c1ccccc1NC(=S)N/N=C/c1ccc2nc(Oc3ccc(OC(F)(F)F)cc3)ccc2c1 [Compound P2, N-(2-isopropylphenyl)-2-((2-(4-(trifluoromethoxy)phenoxy)quinolin-6-yl)methylene)hydrazinecarbothioamide], the percent effect (mortality or growth inhibition) at 200 ppm [1] was ≥ 80%, the percent effect (mortality or growth inhibition) at 200 ppm [3] was ≥ 80% and the percent control (mortality, anti-feedant effect or growth inhibition) at 200 ppm [2] was ≥ 80%.
With Cc1cccc(C)c1NC(=S)N/N=C/c1ccc2c(cnn2-c2ccc(OC(F)(F)F)cc2)c1 [Compound P21, 1-(2,6-dimethylphenyl)-3-[(E)-[1-[4-(trifluoromethoxy)phenyl]indazol-5-yl]methyleneamino]thiourea] the percent effect (mortality or growth inhibition) at 200 ppm [3] was ≥ 80% and the percent control (mortality, anti-feedant effect or growth inhibition) at 200 ppm [2] was ≥ 80%.
In the case of CC(C)c1ccccc1NC(=O)N/N=C/c1ccc2c(cnn2-c2ccc(OC(F)(F)F)cc2)c1 [Compound P23], the melting point is reported as 207 to 213 °C.
For CC(C)c1ccccc1NC(=S)N/N=C/c1ccc2c(c1)C(=O)N(c1ccc(OC(F)(F)F)cc1)C2=O [Compound P12], the percent effect (mortality or growth inhibition) at 200 ppm [1] was ≥ 80%.
For Cc1cccc(C)c1NC(=S)N/N=C/c1ccc2c(c1)nc(-c1ccc(OC(F)(F)F)cc1)n2C [Compound P29], the percent effect (mortality or growth inhibition) at 200 ppm [1] was ≥ 80%, the percent effect (mortality or growth inhibition) at 200 ppm [3] was ≥ 80% and the percent control (mortality, anti-feedant effect or growth inhibition) at 200 ppm [2] was ≥ 80%.
In the case of CC(C)c1ccccc1NC(=O)N/N=C/c1ccc2cn(-c3ccc(OC(F)(F)F)cc3)nc2c1 [Compound P35], the percent effect (mortality or growth inhibition) at 200 ppm [1] is reported as ≥ 80%, the percent effect (mortality or growth inhibition) at 200 ppm [3] is reported as ≥ 80% and the percent control (mortality, anti-feedant effect or growth inhibition) at 200 ppm [2] is reported as ≥ 80%.
With Cc1cccc(C)c1NC(=S)N/N=C/c1ccc2cn(-c3ccc(OC(F)(F)F)cc3)nc2c1 [Compound P1, N-(2,6-dimethylphenyl)-2-((2-(4-(trifluoromethoxy)phenyl)-2H-indazol-6-yl)methylene)hydrazinecarbothioamide] the percent effect (mortality or growth inhibition) at 200 ppm [1] was ≥ 80%, the percent effect (mortality or growth inhibition) at 200 ppm [3] was ≥ 80% and the percent control (mortality, anti-feedant effect or growth inhibition) at 200 ppm [2] was ≥ 80%.
Cc1cccc(C)c1NC(=O)N/N=C/c1ccc2c(cnn2-c2ccc(OC(F)(F)F)cc2)c1 [Compound P24, 1-(2,6-dimethylphenyl)-3-[(E)-[1-[4-(trifluoromethoxy)phenyl]indazol-5-yl]methyleneamino]urea] showed a melting point of 227 to 233 °C.
Compound Cc1cccc(C)c1NC(=O)N/N=C/c1ccc2nc(-c3ccc(OC(F)(F)F)cc3)n(C)c2c1 [Compound P28, 1-(2,6-dimethylphenyl)-3-[(E)-[3-methyl-2-[4-(trifluoromethoxy)phenyl]benzimidazol-5-yl]methyleneamino]urea] has a melting point of 218 to 219 °C.
For CC(C)c1ccccc1NC(=O)N/N=C/c1ccc2sc(-c3ccc(OC(F)(F)F)cc3)nc2c1 [Compound P15], the percent effect (mortality or growth inhibition) at 200 ppm [1] was ≥ 80% and the percent effect (mortality or growth inhibition) at 200 ppm [3] was ≥ 80%.
For Cc1cccc(C)c1NC(=O)N/N=C/c1ccc2nc(-c3ccc(OC(F)(F)F)cc3)cn2c1 [Compound P18, 1-(2,6-dimethylphenyl)-3-[(E)-[2-[4-(trifluoromethoxy)phenyl]imidazo[1,2-a]pyridin-6-yl]methyleneamino]urea], the percent effect (mortality or growth inhibition) at 200 ppm [1] was ≥ 80% and the percent control (mortality, anti-feedant effect or growth inhibition) at 200 ppm [2] was ≥ 80%.
With Cc1cccc(C)c1NC(=S)N/N=C/c1ccc2nc(-c3ccc(OC(F)(F)F)cc3)cn2c1 [Compound P17, 1-(2,6-dimethylphenyl)-3-[(E)-[2-[4-(trifluoromethoxy)phenyl]imidazo[1,2-a]pyridin-6-yl]methyleneamino]thiourea] the percent effect (mortality or growth inhibition) at 200 ppm [1] was ≥ 80%, the percent effect (mortality or growth inhibition) at 200 ppm [3] was ≥ 80% and the percent control (mortality, anti-feedant effect or growth inhibition) at 200 ppm [2] was ≥ 80%.
With CC(C)c1ccccc1NC(=S)N/N=C/c1ccc2sc(-c3ccc(OC(F)(F)F)cc3)nc2c1 [Compound P14] the percent effect (mortality or growth inhibition) at 200 ppm [1] was ≥ 80% and the percent effect (mortality or growth inhibition) at 200 ppm [3] was ≥ 80%.
For CC(C)c1ccccc1NC(=S)N/N=C/c1ccc2nc(-c3ccc(OC(F)(F)F)cc3)n(C)c2c1 [Compound P34], the percent effect (mortality or growth inhibition) at 200 ppm [1] was ≥ 80% and the percent control (mortality, anti-feedant effect or growth inhibition) at 200 ppm [2] was ≥ 80%.
With Cc1cccc(C)c1NC(=O)N/N=C/c1ccc2c(c1)nc(-c1ccc(OC(F)(F)F)cc1)n2C [Compound P27, 1-(2,6-dimethylphenyl)-3-[(E)-[1-methyl-2-[4-(trifluoromethoxy)phenyl]benzimidazol-5-yl]methyleneamino]urea] the percent control (mortality, anti-feedant effect or growth inhibition) at 200 ppm [2] was ≥ 80%.
